Measured values published in patent US5792622A, “Assay for chemicals” (priority 1995, dated 1998).
Read-outs that look alike come from different tables or passages of the source.

Assays:
[1] = cited from earlier work; for Microtox IC50: Table 8
[2] = system: R. meliloti; experiment: microbe, parasite or virus in culture; assay type: cell-based; settings: for Rhizobium/Tetrazolium IC50: Table 8
[3] = system: fish (trout fingerlings); settings: Table 8, trout fingerlings; cited from earlier work
[4] = system: Rhodobacter sphaeroides; experiment: Inhibition of tetrazolium dye reduction by Rhodobacter sphaeroides; assay type: cell-based
Method: The other strains of bacteria, mixed in a buffer with various toxic chemicals, which were tested with the tetrazolium dye, gave varying results. Some bacteria reduced the dye, but the reduction was not inhibited appreciably by toxic chemicals. The absorbance of tetrazolium by Rhodobacter sphaeroides was not inhibited by copper. E. coli reduced the dye, but reduction was not inhibited by xylene. […] FIG. 1 is a graph showing data comparing the absorbance of the bacteria R. meliloti and E. coli at A590 varying between 0.0 and 0.3 in reacting with different toxins.

[5] = system: R. meliloti; assay type: cell-based; settings: for absorbance of reduced dye: Table 1, incubation 2:00 hrs
[6] = system: S. typhimurium; assay type: cell-based; settings: Table 1, incubation 2:00 hrs
[7] = system: R. leguminosarum; assay type: cell-based; settings: Table 1, incubation 7:48 hrs
[8] = system: B. japonicum; assay type: cell-based; settings: Table 1, incubation 7:48 hrs
[9] = system: B. megaterium; assay type: cell-based; settings: Table 1, incubation 2:00 hrs
[10] = system: E. coli; assay type: cell-based; settings: Table 1, incubation 1:40 hrs
[11] = system: S. lactis; assay type: cell-based; settings: Table 1, incubation 9:57 hrs
[12] = system: R. sphaeroides; assay type: cell-based; settings: Table 1, incubation 11:25 hrs
[13] = system: Ps fluorescens; assay type: cell-based; settings: Table 1, incubation 1:57 hrs
[14] = system: A. crystallopoites; assay type: cell-based; settings: Table 1, incubation 2:00 hrs
[15] = Sinorhizobium meliloti, read-out: IC50 ppm
[16] = Sinorhizobium meliloti, read-out: Rhizobium/Tetrazolium ppm
[17] = ratio of the inhibitory concentrations
[18] = read-out: toxic concentration in mM equivalent to ppm of Table 7
[19] = rhizobium meliloti mtt reduction

Question: Which Microtox ppm ([1]; microtox bioluminescence) does the source give for `CC(C)=O` [Acetone] here?
Answer: 13305-29,109

Question: And the IC50 [2, 15]?
Answer: 71.6 mg/mL

Question: What about the IC50 [2, 16] of the same compound?
Answer: 1.64 mg/mL

Question: For `c1ccccc1` [Benzene], which “sensitivity of Rhizobium/Tetrazolium assay compared with Microtox assay” value [2] is on record?
Answer: at least an order of magnitude more sensitive than the Rhizobium/Tetrazolium assay

Question: What about the IC50 ([2]; Sinorhizobium meliloti, read-out: Rhizobium/Tetrazolium IC50) of the same compound?
Answer: 0.712 mg/mL

Question: What about the IC50 [2, 16] of the same compound?
Answer: 0.712 to 2.1 mg/mL

Question: With `[Cd]` [Cadmium] as the compound, how does the “Fish LD50 (50% death of the fish)” value [3] read?
Answer: 1.0-100 ppm

Question: What about the “Microtox IC50” value [1] of the same compound?
Answer: 416 ppm

Question: What about the “ppm (50% inhibition of dye reduction)” value ([2]; Table 7, minerals) of the same compound?
Answer: 0.838 ppm

Question: What about the “Rhizobium/Tetrazolium IC50” value [2] of the same compound?
Answer: 0.210 ppm

Question: And the “sensitivity of Rhizobium/Tetrazolium assay compared with Microtox assay” value [2, 17]?
Answer: at least an order of magnitude more sensitive for 4 compounds

Question: For `[Ca+2].[Cl-].[Cl-]` [Calcium, calcium chloride], which “effect on the reaction” value ([2]; 19 ppm, with 500 μl of 5 mM EDTA (0.758 mM EDTA)) is on record?
Answer: does not affect the reaction

Question: What about the “ppm (50% inhibition of dye reduction)” value ([2]; Table 7, minerals) of the same compound?
Answer: 5.230 ppm

Question: What about the “level at which toxic” value ([2]; in the absence of a counteracting substance) of the same compound?
Answer: 6 ppm

Question: What about the IC50 [2, 18] of the same compound?
Answer: 0.0471 mM

Question: Which “IC50 (amount per tube)” value [2] does the source give for `ClC(Cl)Cl` [Chloroform] here?
Answer: 6.10 mg/tube

Question: What about the IC50 volume [2] of the same compound?
Answer: 827 µL

Question: And the IC50 [2, 19]?
Answer: 4132 ppm

Question: And the “average (ppm), concentration giving 50% inhibition of dye reduction” value [2, 19]?
Answer: 2032

Question: With `[Co]` [Cobalt] as the compound, how does the “ppm (50% inhibition of dye reduction)” value ([2]; Table 7, minerals) read?
Answer: 11.200 ppm

Question: Which “inhibition of absorbance of tetrazolium” value [4] does the source give for `[Cu]` [Copper] here?
Answer: not inhibited

Question: And the “Fish LD50 (50% death of the fish)” value [3]?
Answer: 0.1-10.7 ppm

Question: What about the “Microtox IC50” value [1] of the same compound?
Answer: 24.96 ppm

Question: And the “effect on the reduction of the dye at very low concentrations” value ([2]; FIG. 10)?
Answer: stimulates the reduction of the dye at very low concentrations

Question: And the “ppm (50% inhibition of dye reduction)” value ([2]; Table 7, minerals)?
Answer: 0.960 ppm

Question: And the “Rhizobium/Tetrazolium IC50” value [2]?
Answer: 0.240 ppm

Question: What about the “sensitivity of Rhizobium/Tetrazolium assay compared with Microtox assay” value [2, 17] of the same compound?
Answer: at least an order of magnitude more sensitive for 4 compounds

Question: With `O=C1C(Cl)=CC(=Nc2ccc(O)cc2)C=C1Cl` [DCIP, 2,6-dichlorophenol-indophenol] as the compound, how does the “rate of reduction of the dye” value [5] read?
Answer: reduced very slowly

Question: For `C[S+](C)[O-]` [DMSO, dimethyl sulfoxide], which Microtox ppm ([1]; microtox bioluminescence) is on record?
Answer: 3,506-102,995

Question: What about the IC50 [2] of the same compound?
Answer: 203.3 μl/tube

Question: Which results are given for `O=[N+]([O-])c1ccc(O)c([N+](=O)[O-])c1` [Dinitrophenol, dinitrophenol]?
Answer: absorbance at which the reduction stopped ([2]; A550, FIGS. 3 and 5): 0.2; IC50 ([2]; Sinorhizobium meliloti, Table 4, organic compounds, read-out: average (ppm), concentration giving 50% inhibition of dye reduction): 0.574 mg/mL

Question: For `CCO` [Ethanol], which Microtox ppm ([1]; microtox bioluminescence) is on record?
Answer: 23,090-55,388

Question: What about the IC50 [2, 15] of the same compound?
Answer: 75.6 mg/mL

Question: Which “absorbance of reduced dye” value [6] does the source give for `O=[N+]([O-])c1ccc(-[n+]2nc(-c3ccccc3)nn2-c2ccc(I)cc2)cc1` [INT, 2-(4-iodophenyl)-3-(4-nitrophenyl)-5-phenyltetrazolium chloride] here?
Answer: 0.06

Question: And the “absorbance of reduced dye” value [7]?
Answer: 0.02

Question: What about the “absorbance of reduced dye” value [8] of the same compound?
Answer: 0.44

Question: And the “absorbance of reduced dye” value [9]?
Answer: 0.16

Question: And the “absorbance of reduced dye” value [10]?
Answer: 0.12

Question: What about the “absorbance of reduced dye” value [11] of the same compound?
Answer: 0.08

Question: What about the “absorbance of reduced dye” value [12] of the same compound?
Answer: 0.95

Question: And the “absorbance of reduced dye” value [13]?
Answer: 0.17

Question: And the “absorbance of reduced dye” value [5]?
Answer: 0.48

Question: And the “absorbance of reduced dye” value [14]?
Answer: 0.14

Question: Which “inhibitory effect on the reduction of tetrazolium dye” value [2] does the source give for `[Pb]` [Lead] here?
Answer: no inhibitory effect

Question: What does the source list for `O=S(=O)([O-])[O-].[Mg+2]` [Magnesium, Magnesium sulfate]?
Answer: ppm (50% inhibition of dye reduction) ([2]; Table 7, minerals): 59.900 ppm; IC50 [2, 18]: 0.243 mM

Question: Which “ppm (50% inhibition of dye reduction)” value [2, 19] does the source give for `[Mn+2]` [Manganese] here?
Answer: 0.892

Question: With `CO` [Methanol] as the compound, how does the Microtox ppm ([1]; Table 9) read?
Answer: 11,368-320400 ppm

Question: And the IC50 ([2]; Sinorhizobium meliloti, Table 6, solvents, read-out: IC50 ppm)?
Answer: 76.5 mg/mL

Question: And the IC50 ([2]; Sinorhizobium meliloti, Table 9, read-out: Rhizobium/Tetrazolium ppm)?
Answer: 68.4 mg/mL

Question: What does the source list for `COc1cc(-c2ccc(-n3nc(-c4ccccc4)n[n+]3-c3ccc([N+](=O)[O-])cc3)c(OC)c2)ccc1-n1nc(-c2ccccc2)n[n+]1-c1ccc([N+](=O)[O-])cc1` [NBT, 2,2'-di-nitrophenyl-5,5'-diphenyl-3,3'(-3,3'-dimethoxy-4,4'-diphenylene)ditetrazolium chloride]?
Answer: absorbance of reduced dye [6]: 0.24; absorbance of reduced dye [7]: 0; absorbance of reduced dye [8]: 0.01; absorbance of reduced dye [9]: 0.19; absorbance of reduced dye [10]: 0.1; absorbance of reduced dye [11]: 0.06; absorbance of reduced dye [12]: 0.16; absorbance of reduced dye [13]: 0.04; absorbance of reduced dye [5]: 0.16; absorbance of reduced dye [14]: 0.27
